Experimental data taken from patent publication US20150338330A1, “Method for Comprehensive Assessment of Platelet Aggregation” (FUJIMORI KOGYO CO., LTD.,, priority 2012, published 2015).

Experiments:
Format in all cases: cell-based
[1] = test system: platelets; test: Filter back-pressure measurement of platelet aggregation, ADP reagent (final 5.6 μM), citrated blood; parameters: area under the curve of the pressure waveform: unit not given beside the values; conditions: for area under the curve of the pressure waveform: 60 μl/minute, 5 minutes
Description: (§1) The apparatus in FIG. 1 was prepared for use in the following experiments.
(§2) As the container 1 (blood reservoir), a cylindrical acrylic container having a capacity of 450 μl (inner diameter, 6 mm; depth, 16 mm) was used.
(§3) As the filter, a circular nickel micromesh filter having 30 μm×30 μm square openings (pitch size, 45 μm) and a diameter of 1 mm, placed at the center of the filter section was used.
To the blood reservoir, 13 μl of […] ADP reagent (Dynabite GmbH, Germany) (final concentration, 5.6 μM) was added, and 450 μl of blood collected in a Terumo blood collection tube (Venoject, containing 3.13% sodium citrate) was added thereto. The resulting mixture was mixed in the blood reservoir, and the filter device was connected to the blood reservoir. One minute after the mixing of the blood with the ADP reagent, mineral oil was injected into the blood reservoir at a flow rate of 60 μl/minute to inject the blood into the filter device.
The back pressure exerted on the mineral oil was continuously monitored for 5 minutes at intervals of 1 second using the pressure sensor. In addition, the same measurement was carried out for blood to which AR-C66096 (platelet P2Y12 receptor inhibitor; Tocris Bioscience, UK) was added to a final concentration of 25, 50, 100, or 250 nM.

[2] = test system: platelets; test: Multiplate impedance-based whole blood platelet aggregation, ADP (final 6.5 μM); conditions: ADP 6.5 μM
Description: To provide controls, whole blood platelet aggregation was similarly measured for blood to which AR-C66096 was added to a final concentration of 25, 50, 100, or 250 nM, using Multiplate (impedance-based platelet aggregability analyzer, Dynabite GmbH). As the platelet-activating reagent, ADP (final concentration, 6.5 μM) was used. […] That is, in the absence of a physical load by blood flow or the like, platelet aggregates that have once adhered/aggregated to the electrode were maintained without breakdown, leading to the increase in the electric resistance.

[3] = test system: platelets; test: Filter back-pressure measurement of platelet aggregation, arachidonic acid (6.25 mM or 10 mM), citrated blood
Description: as §1, §2, §3
To the blood reservoir, 30 or 50 μl (final concentration, 6.25 mM or 10 mM, respectively) of 100 mM arachidonic acid (manufactured by Dynabite GmbH) was added, and 450 μl of blood collected in a Terumo blood collection tube (Venoject, containing 3.13% sodium citrate) was added thereto. After mixing the resulting mixture, the filter device was connected to the blood reservoir. One minute after the mixing of the blood with the collagen reagent, mineral oil was injected into the blood reservoir at a flow rate of 60 μl/minute to inject the blood into the filter device.
The back pressure exerted on the mineral oil was continuously monitored for 5 minutes at intervals of 1 second using the pressure sensor. In addition, the same measurement was carried out for a mixture prepared by mixing 50 μl of an arachidonic acid reagent with blood to which aspirin was added to a final concentration of 100 μM.

[4] = test system: platelets; test: Filter back-pressure measurement of platelet aggregation, collagen reagent (final 0.7 μg/ml), citrated blood; conditions: aspirin 100 μM; collagen 0.7 μg/ml
Description: (§4) The apparatus in FIG. 1 was prepared for use in the following experiments. As the container 1 (blood reservoir), a cylindrical acrylic container having a capacity of 450 μl (inner diameter, 6 mm; depth, 16 mm) was used. As the filter, a circular nickel micromesh filter having 30 μm×30 μm square openings (pitch size, 45 μm) and a diameter of 1 mm, placed at the center of the filter section was used. To the blood reservoir, 13 μl of 25 μg/ml (final concentration, 0.7 μg/ml) collagen reagent (manufactured by Dynabite GmbH) was added, and 450 μl of blood collected in a Terumo blood collection tube (Venoject, containing 3.13% sodium citrate) was added thereto. After mixing the resulting mixture, the filter device was connected to the blood reservoir. One minute after the mixing of the blood with the collagen reagent, mineral oil was injected into the blood reservoir at a flow rate of 60 μl/minute to inject the blood into the filter device. The back pressure exerted on the mineral oil was continuously monitored for 5 minutes at intervals of 1 second using the pressure sensor. In addition, the same measurement was carried out for blood to which aspirin was added to a final concentration of 100 μM, or blood to which both 50 μM aspirin and 250 μM AR-C66096 were added.

[5] = test system: platelets; test: Multiplate impedance-based whole blood platelet aggregation, collagen (final 3.2 μg/ml); conditions: aspirin 100 μM; collagen 3.2 μg/ml
Description: To provide controls, whole blood platelet aggregation was similarly measured for blood to which aspirin was added to a final concentration of 100 μM, and blood to which both 50 μM aspirin and 250 μM AR-C66096 were added, using Multiplate (impedance-based platelet aggregability analyzer, Dynabite GmbH). As the platelet-activating reagent, collagen (final concentration, 3.2 μg/ml) was used.

[6] = test system: platelets; test: Filter back-pressure measurement of platelet aggregation, PAR1-activating reagent (SFLLRN), citrated blood; conditions: aspirin 100 μM
Description: as §4, with “reservoir, 20” for “reservoir, 13”, “of 1 mM PAR1-activating” for “of 25 μg/ml (final concentration, 0.7 μg/ml) collagen”, “reagent (peptide sequence, […]; manufactured” for “reagent (manufactured”, “reservoir. […]” for “reservoir. One minute after the mixing of the blood with the collagen reagent, mineral oil was injected into the blood reservoir at a flow rate of 60 μl/minute to inject the blood into the filter device.”, “sensor. The” for “sensor. In addition, the”, “100 μM.” for “100 μM, or blood to which both 50 μM aspirin and 250 μM AR-C66096 were added.”

[7] = test system: platelets; test: Filter back-pressure measurement of platelet aggregation, PAR4-activating reagent (AYPGKF), citrated blood; conditions: aspirin 100 μM
Description: as §4, with “reservoir, 20” for “reservoir, 13”, “of 20 mM PAR4-activating” for “of 25 μg/ml (final concentration, 0.7 μg/ml) collagen”, “reagent (peptide sequence, AYPGKF; manufactured” for “reagent (manufactured”, “sensor. The” for “sensor. In addition, the”, “100 μM.” for “100 μM, or blood to which both 50 μM aspirin and 250 μM AR-C66096 were added.”

[8] = test system: platelets; test: Filter back-pressure measurement, collagen reagent (final 1.4 μg/ml), repeated 5 times; conditions: collagen final 1.4 μg/ml; 5 times of measurement; no inhibitor
Description: as §1, §2, §3
To the blood reservoir, 13 μl of 50 μg/ml (final concentration, 1.4 μg/ml) collagen reagent (manufactured by Dynabite GmbH) was added, and 450 μl of blood collected in a Terumo blood collection tube (Venoject, containing 3.13% sodium citrate) was added thereto. After mixing the resulting mixture, the filter device was connected to the blood reservoir. One minute after the mixing of the blood with the collagen reagent, mineral oil was injected into the blood reservoir at a flow rate of 60 μl/minute to inject the blood into the filter device.
The back pressure exerted on the mineral oil was continuously monitored for 5 minutes at intervals of 1 second using the pressure sensor. The measurement was repeated 5 times.

[9] = AR-C66096 25-250 nM, ADP 5.6 μM

CCCSc1nc(N)c2ncn([C@@H]3O[C@H](COP(=O)(O)OP(=O)(O)C(F)(F)P(=O)(O)O)[C@@H](O)[C@H]3O)c2n1 [AR-C66096]
area under the curve of the pressure waveform ([1]; AR-C66096 25 nM, ADP 5.6 μM): 11.75 | stability and persistence of platelet aggregates ([1]; AR-C66096 50 nM or 100 nM, arch-shaped pressure curves): suppressed | area under the curve of the pressure waveform ([1]; AR-C66096 50 nM, ADP 5.6 μM): 8.7 | area under the curve of the pressure waveform ([1]; AR-C66096 100 nM, ADP 5.6 μM): 8.05 | area under the curve of the pressure waveform ([1]; AR-C66096 250 nM, ADP 5.6 μM): 7.95 | beginning of the pressure increase [1, 9]: delayed | pressure increase [1, 9]: suppressed the pressure increase in a concentration-dependent manner | AUC (Multiplate impedance) ([2]; AR-C66096 25 nM): 23 | AUC (Multiplate impedance) ([2]; AR-C66096 50 nM): 19 | AUC (Multiplate impedance) ([2]; AR-C66096 100 nM): 15 | AUC (Multiplate impedance) ([2]; AR-C66096 250 nM): 17 | concentration dependence of AUC (Multiplate) ([2]; AR-C66096 25-250 nM): no concentration dependence was found

CCCCC/C=C\C/C=C\C/C=C\C/C=C\CCCC(=O)O [arachidonic acid]
platelet activation / pressure ([3]; arachidonic acid 6.25 mM or 10 mM): activated platelets to increase the pressure

CC(=O)Oc1ccccc1C(=O)O [aspirin]
beginning of the pressure increase [4]: delayed | pressure increase [4]: suppressed | AUC of the electric resistance (Multiplate) [5]: 28 | effect on Multiplate aggregation [5]: an effect of aspirin could be found | pressure increase ([3]; aspirin 100 μM, 50 μl arachidonic acid reagent (10 mM)): suppressed | aggregation waveform obtained by the PAR1-activating peptide [6]: not inhibited | aggregation waveform obtained by the PAR4-activating peptide [7]: not inhibited

collagen
area under the curve of the pressure waveform (mean±SD) [8]: 15.11±0.8
